This note sets out measurements from PubChem BioAssay AID1189 (EPA DSSTox, 2008).

Active and inactive are the calls of the source.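 How the source made its calls: active means a tumor-causing dose value with its tumor site reported for any sex and species group of a rodent or other animal cancer study; inconclusive means only studies judged inadequate by the national testing program; inactive means tested in at least one study, none positive.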

This data set in a line: DSSTox (CPDBAS) Carcinogenic Potency Database Summary SingleCellCall Results. The conditions noted are these: animal chronic carcinogenicity bioassays, CPDB summary call. Summed up:
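Literature-derived summary: each substance receives an overall carcinogenic/non-carcinogenic category drawn from long-term bioassays in rats, mice, hamsters, dogs or primates, using the most positive sex-species experiment and minimal evidence criteria.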
Consider `C/C=C/Cl`, for which the result was active.
Turning to `Nc1cc(Cl)cc(C(=O)O)c1Cl`, the outcome is “active; inactive”.
For the molecule `Clc1cc2c(cc1Cl)Oc1cc(Cl)c(Cl)cc1O2`, the outcome was “active; inactive”.
Take `CC(=O)CN(C)N=O`: the outcome was active.
For `O.O.O.O.O.O.O.O.O=S(=O)([O-])[O-].O=S(=O)([O-])[O-].O=S(=O)([O-])[O-].[Cd+2].[Cd+2].[Cd+2]`, the outcome was inactive.
Consider `C=CF`, for which the outcome is “active; inactive”.
For the molecule `Cc1cc(O)c2c(c1)C(=O)c1cc(O)cc(O)c1C2=O`, the outcome was “inactive; active”.
On to `NC(=O)N(CCc1ccccc1)N=O`, for which the outcome was active.
On to `OC[C@H]1O[C@@](CO)(O[C@H]2O[C@H](CO)[C@@H](O)[C@H](O)[C@H]2O)[C@@H](O)[C@@H]1O`, for which the result was inactive.
Consider `C[C@@H]1C[C@H]2[C@@H]3CCC4=CC(=O)C=C[C@]4(C)[C@@]3(F)[C@@H](O)C[C@]2(C)[C@@]1(O)C(=O)CO`, for which the outcome was inactive.
For `COC(=O)[C@H]1[C@H]2C[C@@H]3c4[nH]c5cc(OC)ccc5c4CCN3C[C@H]2C[C@@H](OC(=O)c2cc(OC)c(OC)c(OC)c2)[C@@H]1OC`, the outcome was active.
For `COC(=O)C(C)(C)Oc1ccc(-c2ccc(Cl)cc2)cc1`, the outcome was active.
In the case of `Nc1ccc(Oc2ccc(Cl)cc2)cc1`, the result was active.
Regarding `COP(=O)(OC)O/C(=C\Cl)c1cc(Cl)c(Cl)cc1Cl`, the outcome is “active; inactive”.
On to `ClCCOCCCl`, for which the result was active.
Turning to `NC(=S)Nc1cccc2ccccc12`, the outcome was inactive.
For `C=CC1=C(C)C2=CC3=NC(=C(CC(=O)[O-])C4=NC(=C(C)C4=C([O-])[O-])C=c4[n-]c(c(C)c4CC)=CC1=N2)[C@@H](CCC(=O)[O-])[C@@H]3C.[Cu+2].[Na+].[Na+].[Na+]`, the result was inactive.
On to `CNC(=O)CSP(=S)(OC)OC`, for which the outcome was inactive.
Take `c1ccc2[nH]c(-c3cscn3)nc2c1`: the result was inactive.
The result for `Cc1cc(C)nc(-c2ccc([N+](=O)[O-])o2)n1` reads “active”.
Take `CN(C)/N=N/c1nc[nH]c1C(N)=O`: the outcome was active.
In the case of `Oc1ccccc1`, the result was inactive.
The result for `[O-]/[N+](=N\O)c1ccccc1` reads “active; inactive”; that for `C=Cc1cccc(C)c1`, “inactive; active”; that for `CNC(=O)O/N=C(\SC)C(=O)N(C)C`, “inactive”.
With `Clc1cnc(Oc2ccc(Oc3ncc(Cl)cc3Cl)cc2)c(Cl)c1`, the outcome was inactive.
Turning to `CCSCCC(N)C(=O)O` (stereo unspecified), the outcome was active.
On to `ClC=C(Cl)Cl`, for which the outcome was “active; inactive”.
Regarding `NCCNc1cccc2ccccc12`, the outcome is “inactive; active”.
As for `O=C1OC(c2ccc(O)cc2)(c2ccc(O)cc2)c2ccccc21`, the outcome was active.
In the case of `Cc1ccccc1` it was “active”.
As for `Cc1cc2c(nc1N)[nH]c1ccccc12`, the result was active.
Take `CNCc1ccc(CSCCNC(=NCC(O)c2ccc(O)cc2)NS(C)(=O)=O)o1` (stereo unspecified): the outcome is “active; inactive”.
On to `Cc1ccc(/C(=C\CN2CCCC2)c2ccccn2)cc1`, for which the outcome was inactive.
As for `CC1CN(/N=C/c2ccc([N+](=O)[O-])o2)C(=O)N1` (stereo unspecified), the outcome was active.
In the case of `COc1cc(S(C)=O)ccc1-c1nc2ccncc2[nH]1` (stereo unspecified) it was “active”; in that of `S=c1nc[nH]c2nc[nH]c12`, “inactive; active”.
With `CCCCCc1cc(O)c2c(c1)OC(C)(C)[C@@H]1CCC(C)=C[C@@H]21`, the outcome is “inactive; active”.
In the case of `O=C1NC(c2ccc([N+](=O)[O-])s2)Nc2ccccc21` (stereo unspecified), the outcome was active.
Regarding `CN(C)CCN(Cc1ccco1)c1ccccn1`, the outcome is “inactive; active”.
Regarding `OCCN(CCO)c1nc(-c2cccs2)nc2ccccc12`, the result was inactive.
Consider `CC(O)CCl` (stereo unspecified), for which the outcome was “inactive; active”.
With `CCOc1ccc(NC(C)=O)cc1`, the outcome is “active; inactive”.
On to `CC1=C2C(=CO[C@@H](C)[C@@H]2C)C(=O)C(C(=O)O)=C1O`, for which the result was active.
For `NC(=O)/C(=C\c1ccc([N+](=O)[O-])o1)c1ccco1`, the result was active.
Regarding `OC[P+](CO)(CO)CO`, the outcome is “inactive; active”.
In the case of `CO[C@@]12[C@H](COC(N)=O)C3=C(C(=O)C(C)=C(N)C3=O)N1C[C@@H]1N[C@@H]12`, the outcome was active.
`CCCCCN(N=O)C(=O)OCC`: the outcome was active.
With `CC(C)CCC[C@@H](C)[C@H]1CC[C@H]2[C@@H]3CC=C4C[C@@H](OC(=O)Cc5ccc(N(CCCl)CCCl)cc5)CC[C@]4(C)[C@H]3CC[C@]12C`, the result was active.
As for `CC1CCC(C(C)C)C(O)C1` (stereo unspecified), the outcome was inactive.
For the molecule `CC(C)OC(=O)Nc1ccccc1`, the outcome was “inactive; active”.
The result for `Oc1ccc2c(c1)OCO2` reads “active; inactive”.
Take `O=[N+]([O-])c1cccc2cccnc12`: the outcome was “active; inactive”.
The result for `CCCCCCCCCCCCCCCC(=O)CC(=O)CCCCCCCCCCCCCCC` reads “active”.
In the case of `CN(N=O)c1ccncc1` it was “inactive; active”.
As for `[N-]=[N+]=O`, the result was inactive.
On to `NC(=S)C(N)=S`, for which the outcome was inactive.
For the molecule `O.O.O.O.O=C([O-])CC(O)(CC(=O)[O-])C(=O)[O-].[Fe+3]`, the outcome was inactive.
Regarding `C=CCN(CCO)N=O`, the outcome was active.
With `O=NN1CCC(=O)NC1=O`, the outcome was active.
Consider `CCOC(=O)N(C)N=O`, for which the outcome was active.
The result for `C=C1C[C@]23C[C@@]1(O)CC[C@H]2[C@@]12C=C[C@H](O)[C@@](C)(C(=O)O1)[C@H]2[C@@H]3C(=O)O` reads “inactive”; that for `O[C@H]([C@H](O)[C@@H](O)CBr)[C@H](O)CBr`, “active; inactive”.
Turning to `Cc1cc(OC(=O)N(C)C)n(C(C)C)n1`, the outcome is “inactive; active”.
Consider `NNC=O`, for which the result was active.
Consider `O.O.O.O.O.O.O.O=S(=O)([O-])[O-].[Co+2]`, for which the outcome was active.
In the case of `CCCCNC(N)=O` it was “inactive”; in that of `Nc1ccccc1C(=O)O`, “inactive; active”.
For the molecule `COC(=O)C1=C(C)NC(C)=C(C(=O)OCCN2CCN(C(c3ccccc3)c3ccccc3)CC2)C1c1cccc([N+](=O)[O-])c1` (stereo unspecified), the result was inactive.
`O=C1N(CCO)CCN1/N=C/c1ccc([N+](=O)[O-])o1`: the result was active.
Take `Cn1c(=O)c2c(ncn2C)n(C)c1=O`: the outcome was inactive.
The result for `Cc1c(N(C)CS(=O)(=O)O)c(=O)n(-c2ccccc2)n1C` reads “active”.
The result for `COC1[C@@H](O[C@@H]2O[C@H](C)[C@@H](O[C@H]3C[C@@](C)(O)[C@H](OC(=O)CC(C)C)[C@H](C)O3)[C@H](N(C)C)[C@H]2O)[C@@H](CC=O)C[C@@H](C)[C@@H](O)/C=C/C=C/C[C@@H](C)OC(=O)C[C@H]1OC(C)=O` (stereo partly specified) reads “inactive; active”; that for `C=C(C)C(=O)Nc1ccc(Cl)c(Cl)c1`, “inactive”; that for `FC(F)(F)C(Cl)Cl`, “active”.
With `Nc1cccc2c(N)cccc12`, the result was active.
As to `Cc1cc(Cl)ccc1OCC(=O)O`, the outcome was inactive.
Regarding `O=C1OC(=O)c2ccccc21`, the outcome was inactive.
For `O=NN1CC=CCO1`, the result was active.
In the case of `CC(Oc1ccc(Cl)cc1Cl)C(=O)O` (stereo unspecified), the outcome was inactive.
Take `CCCCOCCO`: the result was active.
For the molecule `S=P(N1CC1)(N1CC1)N1CC1`, the result was active.
In the case of `O=C(O)c1cc(Oc2ccc(C(F)(F)F)cc2Cl)ccc1[N+](=O)[O-]`, the outcome was active.
Regarding `Cc1ccc2ccccc2c1`, the outcome is “inactive; active”.
Turning to `CN(CCCC(=O)c1cccnc1)N=O`, the outcome was active.
Take `Nc1ccc(Cl)cc1N`: the outcome was active.
On to `O=C(O)c1ccc(N=Nc2ccc(O)c(C(=O)O)c2)cc1`, for which the outcome was inactive.
With `CCC(CC)[N+](=O)[O-]`, the result was active.
In the case of `O=NN1CCCC1c1ccc[n+]([O-])c1` (stereo unspecified), the outcome is “active; inactive”.
With `CNCCc1ccc(OC(=O)C(C)C)c(OC(=O)C(C)C)c1`, the result was inactive.
Turning to `O=C(O)c1ccc(O)c(O)c1`, the outcome was inactive.
`CC(C)N(C(=O)SC/C(Cl)=C/Cl)C(C)C`: the outcome was “active; inactive”.
Regarding `[CH3][Hg][Cl]`, the outcome was active.
With `CN(Cc1cnc2nc(N)nc(N)c2n1)c1ccc(C(=O)N[C@@H](CCC(=O)O)C(=O)O)cc1`, the result was inactive.
`ClC1=C(Cl)C2(Cl)C3C(Cl)OC(Cl)C3C1(Cl)C2(Cl)Cl` (stereo unspecified): the result was inactive.
As for `NNC(N)=S`, the result was inactive.
In the case of `C[C@@H]1CCCCN1N=O` it was “active”.
For `CC(Cl)CCl` (stereo unspecified), the outcome is “active; inactive”.
As for `Nc1ncn[nH]1`, the outcome is “active; inactive”.
In the case of `O=S(=O)(O)CCS`, the outcome is “inactive; active”.
For the molecule `Clc1ccc(C(c2ccccc2Cl)C(Cl)Cl)cc1` (stereo unspecified), the outcome was inactive.
For `Cc1ccccc1OCC(O)CNCCn1cc(C)c(=O)[nH]c1=O` (stereo unspecified), the outcome was inactive.
For the molecule `COc1ccccc1N1CCN(CCCNc2cc(=O)n(C)c(=O)n2C)CC1`, the outcome was inactive.
As for `NC(=O)N(CC(=O)O)N=O`, the outcome is “active; inactive”.
With `CCOC(=O)[C@H](CCc1ccccc1)N[C@@H](C)C(=O)N1Cc2ccccc2C[C@H]1C(=O)O`, the outcome is “inactive; active”.
Take `Nc1cc(Cl)c(-c2cc(Cl)c(N)cc2Cl)cc1Cl`: the result was inactive.
